Measurements taken from article PMC8845285, “Serotoninergic receptor ligands improve Tamoxifen effectiveness on breast cancer cells” (BMC Cancer, 2022).

Legend:
Format in all cases: cell-based, human
[1] = test system: Tamoxifen-cultured MCF7 cells; assay: Tamoxifen-cultured MCF7 cell viability, sulforhodamine B assay; details: Tamoxifen 5 μM, E2 100 nM, 72 h
Protocol: (§1) Cells were fixed with 50% trichloroacetic acid for at least 2 h at 4 °C, washed with distilled and de-ionized water, air-dryed and stained 30 min with 0.4% sulforhodamine B in 1% acetic acid. Unbound dye was removed and 10 mM tris-HCl solution (pH 7.5) was added to dissolve the protein-bound dye. Cell survival was assessed by optical density determination at 510 nm using a microplate reader.
To further investigate the effect of SER79 and SER68 on Tamoxifen responsiveness and CTGF expression in MCF7 cells, we obtained - by a continuous treatment of 10 days with 1 μM Tamoxifen – a cellular model less sensitive to the drug (Tamoxifen-cultured MCF7). We observed that 20 μM SER79, 20 μM and 40 μM SER68, while not 5 μM SER79, reduced viability of Tamoxifen-cultured MCF7 cells by about 40% (adjp<0.01; Fig. 8a). […] However, in the presence of 20 μM SER79, 20 μM and 40 μM SER68, Tamoxifen elicited a further 40% reduction of viability, similar to that achieved in Tamoxifen-responsive MCF7 cells (adjp<0.01; Fig. 8b).
Fig. 8 Effect of SER79 and SER68 on Tamoxifen-cultured MCF7 cells. MCF7 cells were cultured in presence of Tamoxifen (1 μM) for 10 days. Estrogen-starved MCF7 and Tamoxifen-cultured MCF7 cells (48 h) were (a-c) treated with SER79 (20 μM, 5 μM) or SER68 (40 μ, 20 μM), (b) treated with Tamoxifen (5 μM) in presence of SER79 (20 μM, 5 μM) or SER68 (40 μM, 20 μM). All treatments were carried out in presence of E2 (100 nM) for 72 h. As positive control, the cells were treated with (a-c) E2 alone or (b) E2 in absence or in presence of SER (as indicated, dotted line). a,b Cell viability was assessed by sulforhodamine B assay (see Methods). The results were reported as percentage of viable cells compared to positive control, considered as maximum viability (100%). c mRNA levels of CTGF were determined by qPCR (see Methods and Table 1). Data were normalized on Ribosomal Protein S23 (Rps23) gene as internal standard and reported as CTGF mRNA levels in Tamoxifen-cultured MCF7 relative to those in MCF7 cells (dotted line). a-c Graphs represent the mean ± SD of at least three independent triplicate experiments. * denotes statistically significant values compared with (a,b) positive control (*adjp<0.05, ** adjp<0.01) or (c) MCF7 cells (*pval<0.05); # denotes statistically significant values compared with (b) cells treated with Tamoxifen in absence of SER or (c) untreated Tamoxifen-cultured MCF7 cells (#pval<0.01, ##pval<0.0001)

MCF7-R cells = assay: Tamoxifen-resistant MCF7-R cell viability, sulforhodamine B assay; details: up to 6 μM, E2 100 nM, 72 h
Protocol: as §1
MCF7 cells were cultured for 4 months in phenol-red free medium supplemented with 10% (C/S) FBS and continuously exposed to Tamoxifen (1 μM). […] To further validate the degree of drug resistance, the expression levels of ABCC1, ABCG1 and ABCG2 – members of ABC transporter family known as involved in multi-drug resistance – were evaluated by Quantitative Real-Time PCR (qPCR; see below) upon cell treatment with 5 μM Tamoxifen for 72 h.
Fig. 9 Effect of SER79 and SER68 on Tamoxifen-resistant (MCF7-R) cells. a Estrogen starved MCF7-R were treated with SER79 (20 μM, 5 μM) or SER68 (20 μM) in presence of E2 (100 nM). b Estrogen-starved MCF7-R were treated with Tamoxifen (5 μM) in presence of E2 and SER79 (20 μM) or SER68 (20 μM). a,b As positive control, the cells were treated with E2 alone, in absence or in presence of SER (dotted line). After 72 h, cell viability was assessed by sulforhodamine B assay (see Methods). The results were reported as percentage of viable cells compared to positive control, considered as maximum viability (100%). c mRNA levels of CTGF were determined by qPCR (see Methods and Table 1) in MCF7-R cells upon treatment with SER68 (20 μM). Data were normalized on Ribosomal Protein S23 (Rps23) gene as internal standard and reported as CTGF mRNA levels in MCF7-R. a-c Graphs represent the mean ± SD of at least three independent triplicate experiments. * denotes statistically significant values compared with (b) positive control or (c) MCF7 cells (*adjp<0.05; **adjp<0.001). # denotes statistically significant values compared with untreated MCF7-R (#pval<0.05) […]
Figure S3. Establishment of MCF7 Tamoxifen re sista n t(M C F7-R) cells. MCF7 cells were cultured with Tamoxifen (1µM), in absence of E2, for 4 months (M C F7-R). (a-b) MCF7 and MCF7-R cells were treated with in c re a s in gconcentration of Tamoxifen […]
As positive control, cells were treated with E2 alone. Cell viability was measured by sulforhodamine B assay (se e Methods). The re su ltswere re p o rte das percentage of viable cells compared to untreated cells, considered as maximum viability (100%). […]
(a ) * denotes statistically significant values compared with untreated cells […]
(§2) (1 picture or pasted object on this page, not shown here)

ABCC1, ABCG1 and ABCG2 = assay: ABC transporter mRNA levels in MCF7-R cells, qPCR; details: Tamoxifen 5 μM, E2 100 nM, 72 h
Protocol: Total RNA was isolated from cells, quantified (NanoDrop spectrophotometer, Life Technologies, Carlsbad, CA, USA) and reverse transcribed according to the manufacturer’s instructions. Semiquantitative PCR and qPCR assays were performed according to manufacturer’s instructions for Bio-Rad T100 thermal cycler and CFX Connect Real Time system (Biorad, Hercules, CA, USA), respectively. Relative gene expression quantification was measured by 2^−ΔΔCt method normalizing for the reference sample using Rps23 (Ribosomal Protein S23) as housekeeping gene.
Cell viability was measured
as §2

CC/C(=C(\c1ccccc1)c1ccc(OCCN(C)C)cc1)c1ccccc1 [Tamoxifen]
effect of Tamoxifen treatment alone on viability of Tamoxifen-cultured MCF7 cells [1]: did not affect viability
effect of Tamoxifen on MCF7-R cell viability (MCF7-R cells): did not reduce
mRNA levels of ABCC1, ABCG1 and ABCG2 in Tamoxifen-treated MCF7-R cells (ABCC1, ABCG1 and ABCG2): higher
